From paper PMC8825254, “Rational design of Striga hermonthica-specific seed germination inhibitors” (Plant Physiology, 2021)

Assays:
ShHTL7 [1] = target: T1, ShHTL7 (Striga hermonthica, UniProt A0A0M3PNA2); test: YLG hydrolysis competition assay with ShHTL7; format: biochemical
T1 sequence (A0A0M3PNA2 1-271): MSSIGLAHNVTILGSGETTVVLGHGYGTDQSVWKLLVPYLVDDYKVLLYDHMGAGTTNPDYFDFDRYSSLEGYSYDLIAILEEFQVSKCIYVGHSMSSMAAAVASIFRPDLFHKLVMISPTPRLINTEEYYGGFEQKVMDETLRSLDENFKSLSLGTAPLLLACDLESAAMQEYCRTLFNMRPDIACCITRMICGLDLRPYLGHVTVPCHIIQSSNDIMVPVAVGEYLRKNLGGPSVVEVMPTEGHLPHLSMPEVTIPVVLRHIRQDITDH
Procedure: About 0.33 µM of ShHTL7 protein was used to conduct in vitro hydrolysis of YLG (1 µM) as a substrate in a total volume of 100 µL of phosphate-buffered saline (1× PBS) containing 0.1% DMSO in 96-well black plate (Greiner Kremsmünster, Austria; [Tsuchiya et al., 2015]). The hydrolysis of YLG over time and changes in the fluorescence intensity was measured by SpectraMax i3 (Molecular Devices, San Jose, CA, USA) using an excitation wavelength of 480 nm and detection wavelength of 520 nm and recorded at 10 min intervals for 2 h. YLG in 1× PBS without protein was used as a control. […] Measurement of the fluorescence was conducted in SpectraMax i3 (Molecular Devices) using the above-mentioned method. The relative fluorescence unit was calculated by subtracting the auto-fluorescence of YLG in the buffer from the fluorescence values of YLG in the presence of a protein. The inhibitory curve and IC50 were determined using https://www.aatbio.com/tools/ic50-calculator website.

ShHTL7 [2] = target: T1, ShHTL7; test: DSF thermal stability of ShHTL7; format: binding; conditions: 0 to 100 µM; result in words
Procedure: About 10 µM of ShHTL7 purified protein was incubated with various concentrations of KK023-N1, Triton X-100, or KK094 (ranging from 0 to 100 µM) for 30 min. Then SYPRO Orange (reporter dye) was added to 1× final concentration. The reactions were carried out in 25 µL 1× PBs buffer. The assay was performed on CFX96 Real-Time System (BIO-RAD, Hercules, CA, USA) thermal cycler on 96-well quantitative polymerase chain reaction (qPCR) white plate, and the plate was sealed with adhesive qPCR plate seal to prevent samples evaporation ([Bai et al., 2019]). First, samples were heated to 25°C for 1 min followed by linear increase in the temperature ramp from 25°C to 99°C at a rate of 0.5°C/15 s. The change in the protein folding was monitored by the changes in the fluorescence of the reporter dye, and the data were analyzed by the machine software that plots the inflection point of fluorescence against temperature. Data were exported into Excel, and replicates were averaged to generate the graph.

[3] = system: ShHTL7–ShMAX2-CTH interaction; test: GST pull-down of His-ShHTL7 by CTH of ShMAX2; format: binding, Striga hermonthica; conditions: 100 µM compound, 100 µM GR24; result in words
Procedure: Purified GST-CTH of ShMAX2 and GST were bound to the Glutathione Sepharose 4B Beads (GE healthcare). Purified 6× His-ShHTL7 was incubated with 100 μM KK023-N1 and Triton X-100 for 3 h, separately. Then apo ShHTL7 was added to the beads bound by GST-CTH of ShMAX2 in the presence and absence of 100 μM GR24. Similarly, ShHTL7 incubated with KK023-N1 and Triton X-100 were added to the beads bound by GST-CTH of ShMAX2 in the presence of 100 μM GR24. Apo ShHTL7 was added to the beads bound by GST only in the presence of 100 μM GR24 as a control. All the samples were washed with lysis buffer (50-mM Tris–HCl pH 8.0, 200 mM NaCl, 2 mM DTT) three times and then eluted with addition of 20 mM reduced glutathione. Thus, the eluted protein was subjected to Western blot using an antibody specific to 6XHis (Abcam, Cambridge, UK).

Rice d17 seedlings = test: Rice micro tillering assay, SL-deficient mutant d17 with GR24; format: in vivo, rice (Oryza sativa); conditions: compound with 1.0 µM GR24; result in words
Procedure: Rice seeds of WT (cv Nipponbare) or SL-deficient mutant (d17), were surface sterilized with 2.5% NaClO and 0.05% of Tween-20 for 10 min, and rinsed 6 times with sterilized MilliQ water. About 30 seeds were placed on sterilized Magenta GA-7 plant culture box containing 0.5% MS medium with 0.4% agar and incubated at 30°C in dark. After 2 d, boxes were moved to a growth chamber and allowed to grow for another 5 d under fluorescent white light (130–180 μM m^−2 s^−1). Equally grown seedlings were transplanted in 50-mL black tubes filled with Hoagland nutrient solution (1 seedling/tube). Seedlings were treated with 10, 50, and 100 µM of each compound (KK023-N1, Triton X-100, and KK094). The compounds were applied twice a week for 2 weeks to test their effects on the growth of WT plants. SL-deficient seedlings (d17) were treated as WT but with the addition of 1 µM GR24. Number of tillers per plant, plant height, and dry biomass were measured at final harvest.

OsD14 = target: T2, OsD14 (Oryza sativa subsp. japonica, UniProt Q10QA5); test: YLG hydrolysis competition assay with OsD14; format: biochemical, rice (Oryza sativa); conditions: Figure 3D-F; mean ± SD, n = 3; no unit printed with values (x-axis µM); read-out: IC50, OsD14-mediated YLG hydrolysis (Figure 3)
T2 construct: made in house; host or cells: Escherichia coli BL21 (DE3)
T2 sequence (Q10QA5 1-318): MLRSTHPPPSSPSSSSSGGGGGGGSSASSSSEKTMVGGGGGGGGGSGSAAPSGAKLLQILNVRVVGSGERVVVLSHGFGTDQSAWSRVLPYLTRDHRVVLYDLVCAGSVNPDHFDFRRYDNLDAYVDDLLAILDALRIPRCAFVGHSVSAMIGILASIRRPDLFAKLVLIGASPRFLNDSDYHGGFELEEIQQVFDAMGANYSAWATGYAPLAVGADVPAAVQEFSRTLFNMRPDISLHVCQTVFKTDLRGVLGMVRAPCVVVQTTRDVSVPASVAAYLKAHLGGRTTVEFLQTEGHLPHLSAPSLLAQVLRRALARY

COc1ccc(CCCc2cccc3c2CCN3C(=O)n2ccnn2)cc1 [KK023-N1]
IC50 (ShHTL7 [1]): 1.78 µM
Effect on SYPRO orange fluorescence peak of ShHTL7 (ShHTL7 [2]): decreased the fluorescence of the SYPRO orange
Effect on melting temperature of ShHTL7 (ShHTL7 [2]): did not affect the melting temperature
Effect on GR24-dependent pull-down of His-ShHTL7 by GST-CTH of ShMAX2 [3]: could inhibit such interaction
Effect on GR24 action on tillering of d17 rice (Rice d17 seedlings): did not block the GR24 effect on rice tillers
IC50 (OsD14): 29.6 ± 3.77 µM
